Reference: US10206937B2, “Boronic acid derivatives and therapeutic uses thereof” (Qpex Biopharma, Inc., priority 2014, dated 2019)
Read-outs that look alike come from different tables or passages of the source.

Tests used:
KPC-2 = KPC-2 (Klebsiella pneumoniae, UniProt Q9F663); experiment: Inhibition of purified class A carbapenemase KPC-2 (Ki, carbapenem substrates); type: biochemical
NDM-1 [1] = target: T1, NDM-1 (Klebsiella pneumoniae, UniProt C7C422); experiment: biochemical
[2] = target: T2, purified class A, C and D enzymes (UniProt Q6XEC0); type: biochemical; settings: read-out: Ki (OXA-48, NCF); purified OXA-48; nitrocefin reporter substrate
T2 construct: rows headed: Ki (OXA-48, NCF); other: purified OXA-48; nitrocefin reporter substrate

[3] = target: purified class A, C and D enzymes (Escherichia coli, UniProt Q9L5C7); type: biochemical; settings: purified CTX-M-14; nitrocefin reporter substrate
Sequence of purified class A, C and D enzymes (Escherichia coli, UniProt Q9L5C7) (Q9L5C7 entry or part of it): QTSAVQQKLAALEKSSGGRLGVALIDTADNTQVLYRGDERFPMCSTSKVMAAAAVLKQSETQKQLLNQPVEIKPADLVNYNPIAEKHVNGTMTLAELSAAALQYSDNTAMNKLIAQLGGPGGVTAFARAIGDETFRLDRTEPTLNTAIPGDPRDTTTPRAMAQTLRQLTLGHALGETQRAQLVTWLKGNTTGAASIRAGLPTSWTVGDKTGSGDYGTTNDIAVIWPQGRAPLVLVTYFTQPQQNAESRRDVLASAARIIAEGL

[4] = target: T3, purified class A, C and D enzymes (UniProt P0AD64, L31Q/G234S/E235K, species not given); type: biochemical; settings: read-out: Ki (SHV-12, NCF); purified SHV-12; nitrocefin reporter substrate
T3 construct: Ki (SHV-12, NCF); other: purified SHV-12; nitrocefin reporter substrate
T3 sequence (P0AD64 1-286 L31Q/G234S/E235K): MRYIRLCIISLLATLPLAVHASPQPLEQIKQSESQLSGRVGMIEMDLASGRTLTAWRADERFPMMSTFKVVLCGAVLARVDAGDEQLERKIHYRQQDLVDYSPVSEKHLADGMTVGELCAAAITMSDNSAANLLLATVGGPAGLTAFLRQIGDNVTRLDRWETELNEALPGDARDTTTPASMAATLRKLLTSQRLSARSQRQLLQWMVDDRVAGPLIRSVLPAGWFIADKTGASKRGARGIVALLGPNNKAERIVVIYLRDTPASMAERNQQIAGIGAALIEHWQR

[5] = target: T4, purified class A, C and D enzymes (UniProt Q9F663); type: biochemical; settings: read-out: Ki (KPC-2, NCF); purified KPC-2; nitrocefin reporter substrate
T4 construct: rows headed: Ki (KPC-2, NCF); other: purified KPC-2; nitrocefin reporter substrate

[6] = target: purified class A, C and D enzymes (Enterobacter cloacae, UniProt P05364); type: biochemical; settings: purified P99/AmpC of ECL; nitrocefin reporter substrate
Sequence of purified class A, C and D enzymes (Enterobacter cloacae, UniProt P05364) (P05364 21-381): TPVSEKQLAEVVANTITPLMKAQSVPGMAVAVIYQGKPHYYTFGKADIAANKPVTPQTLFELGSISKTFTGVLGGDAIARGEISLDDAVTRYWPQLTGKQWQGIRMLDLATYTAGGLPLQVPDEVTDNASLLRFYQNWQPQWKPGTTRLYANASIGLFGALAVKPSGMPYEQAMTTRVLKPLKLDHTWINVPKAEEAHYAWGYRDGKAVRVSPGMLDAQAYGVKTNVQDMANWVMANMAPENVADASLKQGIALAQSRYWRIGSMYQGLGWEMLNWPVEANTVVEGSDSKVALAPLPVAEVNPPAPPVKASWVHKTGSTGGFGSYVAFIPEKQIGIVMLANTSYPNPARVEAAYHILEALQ

NDM-1 [7] = target: T1, NDM-1; experiment: Inhibition of purified class B carbapenemase NDM-1 (Ki, imipenem substrate); type: biochemical; settings: NDM-1, substrate imipenem; read-out: Ki NDM-1, Imipenem
VIM-1 = target: T5, VIM-1 (Pseudomonas aeruginosa, UniProt A0A0F7KYQ8); experiment: biochemical; settings: cleavage of nitrocefin (200 uM) by VIM-1 supernatant
T5 construct: made in house; host or cells: ECM6711 strain carrying pUCP24-VIM-1 plasmid; culture supernatant used unpurified

[8] = tested on: strains of Enterobacteriaceae producing various carbapenemases (class A, D and B; 169 strains); experiment: Meropenem or tebipenem potentiation by Compounds 97 or 62 (MIC); type: cell-based; settings: Compound 62 at a fixed concentration of 8 μg/ml
Procedure: The largest panel of clinical isolates expressing class A, D and B carbapenemases alone or in combination with other beta-lactamases (169 strains) was used to evaluate carbapenem potentiation activity of Compounds 97 and 62. MIC for meropenem and tebipenem of these strains were determined either alone or in the presence of Compounds 97 or 62, respectively, at a fixed concentration of 8 μg/ml in the growth media.

OXA-48 = OXA-48 (Klebsiella pneumoniae, UniProt Q6XEC0); experiment: Inhibition of purified class D carbapenemase OXA-48 (Ki, carbapenem substrates); type: biochemical
Sequence of OXA-48 (Q6XEC0 23-265, looked up): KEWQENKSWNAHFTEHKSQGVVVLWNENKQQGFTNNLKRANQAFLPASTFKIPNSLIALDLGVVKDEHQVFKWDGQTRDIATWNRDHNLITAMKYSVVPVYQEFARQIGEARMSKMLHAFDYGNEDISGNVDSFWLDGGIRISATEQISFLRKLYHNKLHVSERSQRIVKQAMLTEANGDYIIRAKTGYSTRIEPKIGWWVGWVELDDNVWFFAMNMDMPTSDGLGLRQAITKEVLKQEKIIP

[9] = Serum stability of prodrugs: hydrolysis by rat serum; type: in vitro ADME; settings: for Measured Initial Conc. in Serum / Conc. at t = 1 hr / Conc. at t = 3 hr: rat serum, prodrug; for Measured Initial Conc. in Serum: 37 degrees, sampled immediately
Procedure: (§1) Prodrug strategy is one of the ways to achieve or increase oral bioavailability for therapeutic drugs. Compound 62 was used as a template for various ester prodrugs. After a prodrug molecule is absorbed into systemic circulation, it should be hydrolyzed in the blood in order to release the active form. Hydrolysis of several prodrugs by rat and human serum were evaluated.
(§2) For all stability experiments the test compounds were treated with rat or human serum in Eppendorf tubes. Typically, 980 μl of serum was prewarmed at 37 degrees for 2 minutes and then 20 μl of a compound (at 1 mg/ml, 50×) was added to it to get a final concentration of 20 μg/ml and immediately mixed. Duplicate samples were tested. […] After vortexing for 30 seconds, the tube was centrifuged in a microcentrifuge for 10 minutes at 15K rpm. Next, 100 μl of the supernatant was combined with 600 μl of water and injected on LC-MS using 0.1% formic acid in water for mobile phase A and 0.1% formic acid in methanol for mobile phase B on an ACE 5 C18 2.1×100 mm column with a 10 μL it injection. The flow rate and gradient were adjusted as needed to give the desired resolution and run time. The pH of the mobile phase was adjusted if needed to improve the chromatography.
(§3) The time course of both the disappearance of a prodrug and the appearance of the active form of that prodrug is presented in Table 13 and Table 14. The active metabolites for all of the listed prodrugs are corresponding parent drugs

[10] = Serum stability of prodrugs: hydrolysis by human serum; type: in vitro ADME; settings: prodrug; for Measured Initial Conc. in Serum: 37 degrees, sampled immediately
Procedure: as §1, §2, §3

[11] = tested on: strains of Enterobacteriaceae producing various carbapenemases (class A, D and B; 104 strains); experiment: Antibiotics potentiation by Compound 27 (MIC; meropenem, doripenem, ertapenem, cefepime); type: cell-based; settings: Compound 27 at a fixed concentration of 4 μg/ml
[12] = cleavage of biapenem by KPC-2, read-out: Ki, Biapenem
[13] = cleavage of doripenem by KPC-2, read-out: Ki, Doripenem
[14] = cleavage of imipenem by KPC-2, read-out: Ki, Imipenem
[15] = cleavage of meropenem by KPC-2, read-out: Ki, Meropenem
[16] = cleavage of biapenem (100 uM) by NDM-1, read-out: Ki, Biapenem
[17] = cleavage of imipenem (100 uM) by NDM-1, read-out: Ki, Imipenem
[18] = cleavage of biapenem by OXA-48, read-out: Ki, Biapenem
[19] = cleavage of doripenem by OXA-48, read-out: Ki, Doripenem
[20] = cleavage of imipenem by OXA-48, read-out: Ki, Imipenem
[21] = cleavage of meropenem by OXA-48, read-out: Ki, Meropenem
[22] = cleavage of tebipenem by KPC-2, read-out: Ki, Tebipenem
[23] = purified KPC-2, substrate biapenem, read-out: Ki KPC-2, Biapenem
[24] = cleavage of meropenem (100 uM) by NDM-1, read-out: Ki, Meropenem
[25] = cleavage of tebipenem (100 uM) by NDM-1, read-out: Ki, Tebipenem
[26] = cleavage of tebipenem by OXA-48, read-out: Ki, Tebipenem
[27] = purified OXA-48, substrate biapenem, read-out: Ki OXA-48, Biapenem

T1 sequence (C7C422 29-270, looked up, species assumed): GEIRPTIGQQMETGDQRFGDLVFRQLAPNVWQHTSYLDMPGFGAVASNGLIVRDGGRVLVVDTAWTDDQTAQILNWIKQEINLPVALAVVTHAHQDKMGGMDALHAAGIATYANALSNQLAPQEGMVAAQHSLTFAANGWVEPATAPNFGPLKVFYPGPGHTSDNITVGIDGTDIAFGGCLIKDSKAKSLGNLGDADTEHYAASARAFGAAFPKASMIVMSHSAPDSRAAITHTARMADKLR
Sequence of KPC-2 (Q9F663 25-293 limits assumed): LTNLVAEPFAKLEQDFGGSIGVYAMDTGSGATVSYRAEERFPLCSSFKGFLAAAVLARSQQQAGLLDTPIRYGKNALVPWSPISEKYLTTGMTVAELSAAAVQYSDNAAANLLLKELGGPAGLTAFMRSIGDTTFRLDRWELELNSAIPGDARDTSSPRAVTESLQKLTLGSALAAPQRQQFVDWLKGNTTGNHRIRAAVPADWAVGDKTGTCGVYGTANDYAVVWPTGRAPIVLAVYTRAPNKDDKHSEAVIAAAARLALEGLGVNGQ

Compound	Ki (KPC-2; [12]) [nM]	Ki (KPC-2; [13]) [nM]	Ki (KPC-2; [14]) [nM]	Ki (KPC-2; [15]) [nM]	Ki (NDM-1 [1]; [16]) [nM]	Ki (NDM-1 [1]; [17]) [nM]	Ki [2] [nM]	Ki (CTX-M-14, NCF) [3]	Ki [4] [nM]	Ki [5] [nM]	Ki (P99/AmpC of ECL, NCF) [6]	Ki (NDM-1 [7]) [nM]	IC50 (VIM-1) [nM]	Ki (OXA-48; [18]) [nM]	Ki (OXA-48; [19]) [nM]	Ki (OXA-48; [20]) [nM]	Ki (OXA-48; [21]) [nM]	Measured Initial Conc. in Serum [9] [µM]	Conc. at t = 1 hr [9] [µM]	Conc. at t = 3 hr [9] [µM]	other results
COc1ccc2c(c1C(=O)O)OB(O)[C@@H](Sc1nncs1)C2 [Compound 62, (3R)-2-hydroxy-7-methoxy-3-(1,3,4-thiadiazol-2-ylsulfanyl)-3,4-dihydro-1,2-benzoxaborinine-8-carboxylic acid]	< 10	< 10	10 to 100	< 10	10 to 100	> 100	< 100	X (Less than 0.1 μM)	< 100	< 100	Y (0.1 μM to 1 μM)	> 100	< 1000	< 10	< 10	< 10	< 10				Ki (KPC-2; purified KPC-2, substrate biapenem, numeric value, read-out: Ki KPC-2, Biapenem): 3.9 nM; tebipenem MIC [8]: significantly reduced; Ki (OXA-48; purified OXA-48, substrate biapenem, numeric value, read-out: Ki OXA-48, Biapenem): 5.6 nM
CSc1ccc2c(c1C(=O)O)OB(O)[C@@H](Sc1nnc(N)s1)C2 [Compound 30, (R)-3-(5-amino-1,3,4-thiadiazol-2-ylthio)-2-hydroxy-7-(methylthio)-3,4-dihydro-2H-benzo[e][1,2]oxaborinine-8-carboxylic acid]	< 10	< 10	10 to 100	< 10	10 to 100	10 to 100	< 100	X (Less than 0.1 μM)	< 100	< 100	X (Less than 0.1 μM)	10 to 100	< 1000	< 10	< 10	< 10	< 10				Ki (KPC-2; [22]): < 10 nM; Ki (KPC-2; [23]): 10 to 100 nM; Ki (NDM-1 [1]; [24]): < 10 nM; Ki (NDM-1 [1]; [25]): 10 to 100 nM; Ki (OXA-48; [26]): < 10 nM; Ki (OXA-48; [27]): 10 to 100 nM
COc1ccc2c(c1C(=O)OCOC(=O)C(C)C)OB(O)[C@@H](Sc1nncs1)C2 [Compound 121, 2-methylpropanoyloxymethyl (3R)-2-hydroxy-7-methoxy-3-(1,3,4-thiadiazol-2-ylsulfanyl)-3,4-dihydro-1,2-benzoxaborinine-8-carboxylate]																		31.3	40.7	24.3	Measured Initial Conc. in Serum [10]: 51.4 µM; Conc. at t = 1 hr [10]: 38.6 µM; Conc. at t = 3 hr [10]: 24.8 µM
COc1ccc2c(c1C(=O)OCOC(C)=O)OB(O)[C@@H](Sc1nncs1)C2 [Compound 123, acetoxymethyl (3R)-2-hydroxy-7-methoxy-3-(1,3,4-thiadiazol-2-ylsulfanyl)-3,4-dihydro-1,2-benzoxaborinine-8-carboxylate]																		51.5	26.1	8.6	conversion of prodrug to active metabolite ([9]; serum species not given, 4 hour experiment): completely converted to active metabolite; Measured Initial Conc. in Serum [10]: 51.7 µM; Conc. at t = 1 hr [10]: 43.4 µM; Conc. at t = 3 hr [10]: 30.7 µM
CCOC(=O)OCOC(=O)c1c(OC)ccc2c1OB(O)[C@@H](Sc1nncs1)C2 [Compound 124, ethoxycarbonyloxymethyl (3R)-2-hydroxy-7-methoxy-3-(1,3,4-thiadiazol-2-ylsulfanyl)-3,4-dihydro-1,2-benzoxaborinine-8-carboxylate]																		44.9	36.8	41.2	Measured Initial Conc. in Serum [10]: 48.3 µM; Conc. at t = 1 hr [10]: 38.3 µM; Conc. at t = 3 hr [10]: 45.9 µM
COc1ccc2c(c1C(=O)O)OB(O)[C@@H](Sc1nnc(N)s1)C2 [Compound 27, (R)-3-(5-amino-1,3,4-thiadiazol-2-ylthio)-2-hydroxy-7-methoxy-3,4-dihydro-2H-benzo[e][1,2]oxaborinine-8-carboxylic acid]	< 10	< 10	10 to 100	< 10	10 to 100	10 to 100	< 100	X (Less than 0.1 μM)	< 100	< 100	Y (0.1 μM to 1 μM)	10 to 100	< 1000	< 10	< 10	< 10	< 10				Ki (KPC-2; [22]): < 10 nM; Ki (KPC-2; [23]): 10 to 100 nM; Ki (NDM-1 [1]; [24]): < 10 nM; Ki (NDM-1 [1]; [25]): 10 to 100 nM; antibiotics MIC (meropenem, doripenem, ertapenem, cefepime) [11]: significantly reduced; Ki (OXA-48; [26]): < 10 nM; Ki (OXA-48; [27]): 10 to 100 nM
